Measurements: patent publication US8173689B2 (Novartis AG, priority 2006, dated 2012)
Where two headings read alike, the source gives them in different places.

Assays:
[1] = target: T1, kinase domain of PDGFRβ (Homo sapiens, UniProt P09619); experiment: Inhibition of PDGFRb kinase signaling in an in vitro biochemical assay (alphascreen); details: read-out: PDGFRβ percent inhibition
T1 construct: The kinase domain of PDGFRβ was assayed in 50 mM Hepes; purchased Invitrogen P3082

[2] = target: T2, cytoplasmic domain of the human CSF-1R (Homo sapiens, UniProt P07333); experiment: In vitro kinase assay for colony stimulating factor-1 receptor (AlphaScreen); type: biochemical; details: read-out: CSF-1R percent inhibition
T2 construct: Recombinant protein corresponding to the cytoplasmic domain of the human CSF-1R; purchased Invitrogen Corporation, Carlsbad, Calif; PV3249
T2 sequence (P07333 539-972 limits assumed): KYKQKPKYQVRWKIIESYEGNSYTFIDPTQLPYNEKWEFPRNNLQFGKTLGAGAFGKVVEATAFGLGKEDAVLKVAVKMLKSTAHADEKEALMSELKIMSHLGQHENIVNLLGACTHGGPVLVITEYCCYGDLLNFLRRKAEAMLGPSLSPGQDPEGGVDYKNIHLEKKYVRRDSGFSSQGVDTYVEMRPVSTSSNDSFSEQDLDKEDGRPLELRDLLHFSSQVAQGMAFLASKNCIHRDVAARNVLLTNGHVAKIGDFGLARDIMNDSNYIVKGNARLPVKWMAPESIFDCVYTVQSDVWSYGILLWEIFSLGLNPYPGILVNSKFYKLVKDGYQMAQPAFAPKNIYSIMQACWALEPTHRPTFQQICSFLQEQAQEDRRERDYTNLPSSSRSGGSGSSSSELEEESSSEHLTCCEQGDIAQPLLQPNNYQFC
Outline: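 Test compounds, serially diluted threefold starting at 25 μM, were mixed with Hepes buffer (pH 7.5, Mg2+/Mn2+, DTT, BSA, Tween 80) containing 1 μM ATP. Recombinant kinase was present at 4 nM. After stopping, beads were added and plates were read the next day by AlphaScreen.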

[3] = target: T3, kinase domain of cKIT (Homo sapiens, UniProt P10721); experiment: Inhibition of cKIT kinase signaling in an in vitro biochemical assay (alphascreen); details: read-out: cKit percent inhibition
T3 construct: The kinase domain of cKIT was assayed in 50 mM Hepes; purchased Upstate 14-559
T3 sequence (P10721 589-937 limits assumed): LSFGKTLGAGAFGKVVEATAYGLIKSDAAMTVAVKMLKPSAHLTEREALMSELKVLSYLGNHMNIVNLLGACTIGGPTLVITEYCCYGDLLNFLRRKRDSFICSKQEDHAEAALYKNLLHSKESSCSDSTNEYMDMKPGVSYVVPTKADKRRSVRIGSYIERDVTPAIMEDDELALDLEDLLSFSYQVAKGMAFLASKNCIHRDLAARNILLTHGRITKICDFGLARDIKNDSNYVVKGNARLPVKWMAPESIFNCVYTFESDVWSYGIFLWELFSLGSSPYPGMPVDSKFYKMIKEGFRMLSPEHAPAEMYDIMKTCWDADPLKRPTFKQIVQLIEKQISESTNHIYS

[4] = test system: MNFS60 (murine AML cells); experiment: Cell viability assay in MCSF dependent MNFS60 cells (Cell Titer Glo); type: cell-based; details: Mus musculus, tested at about 1 μM, read-out: M-NFS-60 CP percent inhibition
Method: Cell viability was assessed by Cell Titer Glo, Promega. […] Test compounds were serially diluted (3 fold) in DMSO to 500× the final concentration. […] Final concentration of MCSF is 10 ng/ml. Cells were incubated for 72 hrs at 37° C., 5% CO2. After the incubation 100 μl Cell Titer Glo is added to each well to determine viable cells. The assay was performed according to the manufacturer's instruction (Promega Corporation, Madison, Wis. USA). Each experimental condition was performed in triplicate. Raw data was imported in Abase and EC50s calculated with XL-fit data analysis software.

[5] = tested at about 1 μM, compounds of Table 3

T1 sequence (P09619 600-962 limits assumed): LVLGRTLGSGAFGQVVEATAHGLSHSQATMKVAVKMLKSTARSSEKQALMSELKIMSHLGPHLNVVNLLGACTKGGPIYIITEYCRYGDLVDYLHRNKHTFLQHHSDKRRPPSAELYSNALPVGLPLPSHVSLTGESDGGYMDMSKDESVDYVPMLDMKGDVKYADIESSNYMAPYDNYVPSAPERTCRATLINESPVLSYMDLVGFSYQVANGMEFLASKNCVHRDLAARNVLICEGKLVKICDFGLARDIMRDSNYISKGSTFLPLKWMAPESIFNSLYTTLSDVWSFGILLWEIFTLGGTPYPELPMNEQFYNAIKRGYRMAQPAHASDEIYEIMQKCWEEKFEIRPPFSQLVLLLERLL

SMILES | inhibition at 1 µM ([1]; tested at about 1 μM) [%] | inhibition at 1 µM ([2]; tested at about 1 μM) [%] | inhibition at 1 µM ([3]; tested at about 1 μM) [%] | inhibition at 1 µM ([4]; MNFS60 cells) [%] | inhibition at 1 µM [1, 5] [%] | inhibition at 1 µM [2, 5] [%] | inhibition at 1 µM [3, 5] [%] | inhibition at 1 µM ([4]; compounds of Table 3) [%] | also measured
CN(C)CCNC(=O)c1cc(Oc2ccc3nc(NCC4CCCCC4)sc3c2)ccn1 [Compound 160, 4-(2-(cyclohexylmethyl-amino)benzothiazol-6-yloxy)-N-(2-(dimethylamino)-ethyl)pyridine-2-carboxamide] | 18 | 99 | 13 | 30 |  |  |  |  | 
CNC(=O)c1cc(Oc2ccc3nc(NCCC(C)C)sc3c2)ccn1 [Compound 130] |  |  |  |  | 70 | 100 | 90 | 79 | 
Cn1cc(-c2cc(Oc3ccc4nc(NC[C@@H](O)c5ccccc5)sc4c3)ccn2)cn1 [Example 357, (S)-2-(6-(2-(1-methyl-1H-pyrazol-4-yl)pyridin-4-yloxy)benzo[d]thiazol-2-ylamino)-1-phenylethanol] | 44 | 100 | 91 |  |  |  |  |  | inhibition at 1 µM ([4]; MCSF dependent MNFS60 cells): 100%
COc1ccccc1CNc1nc2ccc(Oc3ccnc4ccccc34)cc2s1 [Example 257, N-(2-methoxybenzyl)-6-(quinolin-4-yloxy)benzo[d]thiazol-2-amine] |  |  |  |  | 11 | 100 | 100 | 100 | 
CNC(=O)c1cc(Oc2ccc3nc(N[C@H](C)C(C)C)sc3c2)ccn1 [Compound 149] |  |  |  |  | 21 | 100 | 29 | 48 | 
O[C@@H]1CCCC[C@H]1Nc1nc2ccc(Oc3ccncc3-c3cn[nH]c3)cc2s1 [Example 188] |  |  |  |  |  |  |  | 38 | inhibition at 1 µM [1]: 35%; inhibition at 1 µM [2]: 100%; inhibition at 1 µM [3]: 55%
COC[C@H](Nc1nc2ccc(Oc3ccnc4ccccc34)cc2s1)[C@@H](O)c1ccccc1 [Example 233, (1S,2S)-3-methoxy-1-phenyl-2-(6-(quinolin-4-yloxy)benzo[d]thiazol-2-ylamino)propan-1-ol] |  |  |  |  | 84 | 100 | 85 | 59 | 
Cn1cc(-c2cc(Oc3ccc4nc(N[C@H]5c6ccccc6C[C@H]5O)sc4c3)ccn2)cn1 [Example 350, (1S,2R)-1-(6-(2-(1-methyl-1H-pyrazol-4-yl)pyridin-4-yloxy)benzo[d]thiazol-2-ylamino)-2,3-dihydro-1H-inden-2-ol] | 91 | 100 | 100 |  |  |  |  |  | inhibition at 1 µM ([4]; MCSF dependent MNFS60 cells): 100%
O[C@@H]1CCCC[C@H]1Nc1nc2ccc(Oc3ccncc3-c3cccnc3)cc2s1 [Example 190] |  |  |  |  | 19 | 98 | 22 | 5 | 
CNC(=O)c1cc(Oc2ccc3nc(NCC4CCCN(C(C)=O)C4)sc3c2)ccn1 (centres unmarked) [Example 306, 4-(2-((1-acetylpiperidin-3-yl)methylamino)benzo[d]thiazol-6-yloxy)-N-methylpicolinamide] | 0 | 99 | 6 |  |  |  |  |  | inhibition at 1 µM ([4]; MCSF dependent MNFS60 cells): 48%
O[C@@H]1CCCC[C@H]1Nc1nc2ccc(Oc3ccnc(-c4ccc(F)cc4)c3)cc2s1 [Example 288, (1R,2R)-2-(6-(2-(4-fluorophenyl)pyridin-4-yloxy)benzo[d]thiazol-2-ylamino)cyclohexanol] |  |  |  |  | 24 | 100 | 78 | 70 | 
CCOC(=O)C1(CNc2nc3ccc(Oc4ccnc(C(=O)NC)c4)cc3o2)CCCCC1 [Compound 75, 1-{[6-(2-Methylcarbamoyl-pyridin-4-yloxy)-benzooxazol-2-ylamino]-methyl}-cyclohexane-carboxylic acid ethyl ester] | 0 | 99 | 7 | 0 |  |  |  |  | 
CNC(=O)c1cc(Oc2ccc3nc(Nc4cccc(CCN5CCCCC5)c4)oc3c2)ccn1 [Compound 58, 4-{2-[3-(2-Piperidin-1-yl-ethyl)-phenylamino]-benzooxazol-6-yloxy}-pyridine-2-carboxylic acid methylamide] | 85 | 98 | 48 | 30 |  |  |  |  | 
CCNc1cc(Oc2ccc3nc(N[C@@H]4CCCC[C@H]4O)sc3c2)ccn1 [Example 369, (1R,2R)-2-(6-(2-(ethylamino)pyridin-4-yloxy)benzo[d]thiazol-2-ylamino)cyclohexanol] | 12 | 100 | 26 |  |  |  |  |  | inhibition at 1 µM ([4]; MCSF dependent MNFS60 cells): 44%
CNC(=O)c1cc(Oc2ccc3nc(NCC4COc5ccccc5O4)oc3c2)ccn1 (centres unmarked) [Compound 119, 4-{2-[(2,3-Dihydro-benzo-[1,4]dioxin-2-ylmethyl)-amino]-benzooxazol-6-yloxy}-pyridine-2-carboxylic acid methylamide] | 32 | 99 | 18 | 13 |  |  |  |  | 
CNC(=O)c1cc(Oc2ccc3nc(NCc4ccc(S(N)(=O)=O)cc4)sc3c2)ccn1 [Compound 161, 4-[2-(4-Sulfonamido-benzyl-amino)-benzothiazol-6-yloxy]-pyridine-2-carboxylic acid methylamide] | 94 | 100 | 0 | 38 |  |  |  |  | 
CNC(=O)c1cc(Oc2ccc3nc(NCc4cc(OC)ccc4F)oc3c2)ccn1 [Compound 73, 4-[2-(2-Fluoro-5-methoxy-benzylamino)-benzooxazol-6-yloxy]-pyridine-2-carboxylic acid methylamide] | 2 | 100 | 21 | 0 |  |  |  |  | 
CC(C)(C)OC(=O)NNC(=O)c1cc(Oc2ccc3nc(NCC4CCCCC4)oc3c2)ccn1 [Compound 68, N'-{4-[2-(Cyclohexylmethyl-amino)-benzooxazol-6-yloxy]-pyridine-2-carbonyl}-hydrazinecarboxylic acid tert-butyl ester] | 3 | 99 | 6 | 18 |  |  |  |  | 
CNC(=O)c1cc(Oc2ccc3nc(NCc4ccccc4N(C)C)sc3c2)ccn1 [Compound 144, 4-[2-(2-Dimethylamino-benzylamino)-benzothiazol-6-yloxy]-pyridine-2-carboxylic acid methylamide] | 100 | 99 | 100 | 100 |  |  |  |  | 
CNC(=O)c1cc(Oc2ccc3nc(N[C@H](CO)Cc4ccccc4)oc3c2)ccn1 [Compound 8] |  |  |  |  | 31 | 95 | 99 | 0 | 
OC[C@@H](Nc1nc2ccc(Oc3ccnc4ccccc34)cc2s1)c1ccccc1 [Example 235, (S)-2-phenyl-2-(6-(quinolin-4-yloxy)benzo[d]thiazol-2-ylamino)ethanol] |  |  |  |  | 81 | 100 | 100 | 100 | 
O[C@@H]1CCCC[C@H]1Nc1nc2ccc(Oc3ccncc3Br)cc2s1 [Example 224, (1R,2R)-2-(6-(3-bromopyridin-4-yloxy)benzo[d]thiazol-2-ylamino)cyclohexanol] |  |  |  |  | 0 | 100 | 26 | 33 | 
N#Cc1ccc(-c2cc(Oc3ccc4nc(N[C@@H]5CCCC[C@H]5O)sc4c3)ccn2)cn1 [Example 287, 4-(2-((1R,2R)-2-hydroxycyclohexylamino)benzo[d]thiazol-6-yloxy)-2,3'-bipyridine-6'-carbonitrile] |  |  |  |  | 20 | 100 | 57 | 35 | 
